Each structure is given as a SMILES string. pIC50: −log10 of the molar value. Counter-ions that a name gives are not always drawn.

In patent publication US9216991B2 (Ares Trading S.A., priority 2012, dated 2015) one finds IC50 data, which are given here for 28 molecules.

This test addresses T1, IRAK4 (Homo sapiens, UniProt Q9NWZ3).
T1 construct: His (N); TEV cleavage site (N)
T1 sequence (Q9NWZ3 1-460): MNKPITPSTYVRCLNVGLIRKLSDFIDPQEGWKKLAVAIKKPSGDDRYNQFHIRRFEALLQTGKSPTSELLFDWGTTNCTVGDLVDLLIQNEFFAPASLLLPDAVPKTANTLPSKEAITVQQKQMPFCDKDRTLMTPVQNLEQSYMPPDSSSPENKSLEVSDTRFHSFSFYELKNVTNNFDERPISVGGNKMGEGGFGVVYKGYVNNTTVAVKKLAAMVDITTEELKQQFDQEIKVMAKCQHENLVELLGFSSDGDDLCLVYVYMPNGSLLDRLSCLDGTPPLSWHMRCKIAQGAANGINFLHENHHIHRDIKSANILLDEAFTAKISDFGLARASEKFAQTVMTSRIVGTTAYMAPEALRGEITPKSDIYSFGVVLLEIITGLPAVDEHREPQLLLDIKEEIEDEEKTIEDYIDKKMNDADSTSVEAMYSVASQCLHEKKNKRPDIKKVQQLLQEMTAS
Nature of the test: IRAK4 Enzymatic Assay. It is filed as biochemical. The following applies: His-TEV-IRAK4 20 ng/well, ATP 2 μM, STK1-biotin peptide 300 nM, 3 hours at 30° C., FlashPlate radioactivity. The procedure, abridged: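 Recombinant His-TEV-tagged IRAK4 (20 ng/well) phosphorylates biotinylated STK1 peptide (300 nM) with 2 μM ATP plus [^33P]ATP, 3 h at 30 °C in pH 7.0 HEPES buffer with MgCl2 and MnCl2; compounds tested 20 μM to 1 nM. Reaction stopped with EDTA; incorporated radioactivity counted on streptavidin FlashPlates.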
Regarding `Cn1cc(-c2cccc(-c3ncc(-c4cnn(C5CCOCC5CN5CCOCC5)c4)cn3)c2)cn1` (stereo not shown) [Example 271, 4-[4-(4-{2-[3-(1-Methyl-1H-pyrazol-4-yl)-phenyl]-pyrimidin-5-yl}-pyrazol-1-yl)-tetrahydro-pyran-3-ylmethyl]-morpholine], the pIC50 was 5.30 to 6.00.

For `Cn1cc(-c2cccc(-c3ncc(-c4cnn([C@H]5CC[C@H](C(=O)NCC#N)CC5)c4)cn3)c2)cn1` [Example 230, trans-4-(4-{2-[3-(1-Methyl-1H-pyrazol-4-yl)-phenyl]-pyrimidin-5-yl}-pyrazol-1-yl)-cyclohexanecarboxylic acid cyanomethyl-amide], the pIC50 is more than 7.00.

Regarding `Cn1cc(-c2cccc(-c3ncc(-c4cnn([C@H]5CC[C@H](C(=O)NCCO)CC5)c4)cn3)c2)cn1` [Example 184, trans-4-(4-{2-[3-(1-Methyl-1H-pyrazol-4-yl)-phenyl]-pyrimidin-5-yl}-pyrazol-1-yl)-cyclohexanecarboxylic acid (2-hydroxy-ethyl)-amide], the pIC50 is more than 7.00.

As to `Cn1cc(-c2cccc(-c3ncc(-c4cnn([C@H]5CC[C@H](C(=O)N6CC[C@@H](O)C6)CC5)c4)cn3)c2)cn1` [Example 186, ((R)-3-Hydroxy-pyrrolidin-1-yl)-[4-(4-{2-[3-(1-methyl-1H-pyrazol-4-yl)-phenyl]-pyrimidin-5-yl}-pyrazol-1-yl)-cyclohexyl]-methanone], the pIC50 was more than 7.00.

For `Cn1cc(-c2cccc(-c3ncc(-c4cnn(CC(=O)N5CCOCC5)c4)cn3)c2)cn1` [Example 36, 2-(4-{2-[3-(1-Methyl-1H-pyrazol-4-yl)-phenyl]-pyrimidin-5-yl}-pyrazol-1-yl)-1-morpholin-4-yl-ethanone], the pIC50 was 6.00 to 7.00.

Consider `CN(C(=O)Cn1cc(-c2cnc(-c3cccc(-c4cnn(C)c4)c3)nc2)cn1)C1COC1` [Example 145, N-Methyl-2-(4-{2-[3-(1-methyl-1H-pyrazol-4-yl)-phenyl]-pyrimidin-5-yl}-pyrazol-1-yl)-N-oxetan-3-yl-acetamide], for which the pIC50 is 6.00 to 7.00.

Take `Cn1cc(-c2cccc(-c3ncc(-c4cnn(CCN5CCCCC5)c4)cn3)c2)cn1` [Example 57, 2-[3-(1-Methyl-1H-pyrazol-4-yl)-phenyl]-5-[1-(2-piperidin-1-yl-ethyl)-1H-pyrazol-4-yl]-pyrimidine]: the negative logarithm of the IC50 (pIC50) was 6.00 to 7.00.

For the molecule `Cn1cc(-c2cccc(-c3ncc(-c4cnn(C5CCNCC5)c4)cn3)c2)nn1` [Example 72, 2-[3-(1-Methyl-1H-[1,2,3]triazol-4-yl)-phenyl]-5-(1-piperidin-4-yl-1H-pyrazol-4-yl)-pyrimidine hydrochloride], the pIC50 is 5.30 to 6.00.

Take `NCCCn1cc(-c2cccc(-c3ncc(-c4cnn(CC(=O)N5CCCC5)c4)cn3)c2)cn1` [Example 42, 2-[4-(2-{3-[1-(3-Amino-propyl)-1H-pyrazol-4-yl]-phenyl}-pyrimidin-5-yl)-pyrazol-1-yl]-1-pyrrolidin-1-yl-ethanone hydrochloride]: the pIC50 was 5.30 to 6.00.

Regarding `Cn1cc(-c2cccc(-c3ncc(-c4cnn(C5CCN(C(=O)C6CCOC6)CC5)c4)cn3)c2)cn1` (stereo not shown) [Example 104, [4-(4-{2-[3-(1-Methyl-1H-pyrazol-4-yl)-phenyl]-pyrimidin-5-yl}-pyrazol-1-yl)-piperidin-1-yl]-(tetrahydro-furan-3-yl)-methanone], the pIC50 is 6.00 to 7.00.

With `Cn1cc(-c2cccc(-c3ncc(-c4cnn(C5CCN(C(=O)CC(F)(F)F)CC5)c4)cn3)c2)cn1` [Example 114, 3,3,3-Trifluoro-1-[4-(4-{2-[3-(1-methyl-1H-pyrazol-4-yl)-phenyl]-pyrimidin-5-yl}-pyrazol-1-yl)-piperidin-1-yl]-propan-1-one], the pIC50 is 6.00 to 7.00.

For `Cn1cc(-c2cccc(-c3ncc(-c4cnn(CCC(=O)N5CCOCC5)c4)cn3)c2)cn1` [Example 83, 3-(4-{2-[3-(1-Methyl-1H-pyrazol-4-yl)-phenyl]-pyrimidin-5-yl}-pyrazol-1-yl)-1-morpholin-4-yl-propan-1-one], the pIC50 was 5.30 to 6.00.

As for `Cn1cc(-c2cccc(-c3ncc(-c4cnn(C5CCN(S(C)(=O)=O)CC5)c4)cn3)c2)cn1` [Example 76, 5-[1-(1-Methanesulfonyl-piperidin-4-yl)-1H-pyrazol-4-yl]-2-[3-(1-methyl-1H-pyrazol-4-yl)-phenyl]-pyrimidine], the pIC50 is 6.00 to 7.00.

Take `CC(=O)N1CCC[C@@H](n2cc(-c3cnc(-c4cccc(-c5cnn(C)c5)c4)nc3)cn2)C1` [Example 269, 1-[3-((R)-4-{2-[3-(1-Methyl-1H-pyrazol-4-yl)-phenyl]-pyrimidin-5-yl}-pyrazol-1-yl)-piperidin-1-yl]-ethanone]: the pIC50 was more than 7.00.

For `Cn1cc(-c2cccc(-c3ncc(-c4cnn([C@H]5CC[C@]6(CCC(=O)N6C)CC5)c4)cn3)c2)cn1` [Example 285, Cis-1-Methyl-8-(4-{2-[3-(1-methyl-1H-pyrazol-4-yl)-phenyl]-pyrimidin-5-yl}-pyrazol-1-yl)-1-aza-spiro[4.5]decan-2-one], the pIC50 is more than 7.00.

For the molecule `Cn1cc(-c2cccc(-c3ncc(-c4cnn([C@@H]5CCNC5)c4)cn3)c2)cn1` [Example 116, 2-[3-(1-Methyl-1H-pyrazol-4-yl)-phenyl]-5-((R)-1-pyrrolidin-3-yl-1H-pyrazol-4-yl)-pyrimidine], the pIC50 is 6.00 to 7.00.

For the molecule `Cn1cc(-c2cccc(-c3ncc(-c4cnn(C5CCN(C(=O)C6CCCCO6)CC5)c4)cn3)c2)cn1` (stereo not shown) [Example 108, [4-(4-{2-[3-(1-Methyl-1H-pyrazol-4-yl)-phenyl]-pyrimidin-5-yl}-pyrazol-1-yl)-piperidin-1-yl]-(tetrahydro-pyran-2-yl)-methanone], the pIC50 was 6.00 to 7.00.

With `Cn1cc(-c2cccc(-c3ncc(-c4cnn(CC(N)=O)c4)cn3)c2)cn1` [Example 49, 2-(4-{2-[3-(1-Methyl-1H-pyrazol-4-yl)-phenyl]-pyrimidin-5-yl}-pyrazol-1-yl)-acetamide], the pIC50 is 5.30 to 6.00.

For `CNC(=O)[C@H]1CC[C@H](n2cc(-c3cnc(-c4cccc(-c5cnn(C)c5)c4)nc3)cn2)CC1` [Example 143, Trans-4-(4-{2-[3-(1-Methyl-1H-pyrazol-4-yl)-phenyl]-pyrimidin-5-yl}-pyrazol-1-yl)-cyclohexanecarboxylic acid methylamide], the pIC50 is more than 7.00.

In the case of `c1ccc(Cn2cc(-c3cccc(-c4ncc(-c5cnn(C6CCNCC6)c5)cn4)c3)cn2)cc1` [Example 21, 2-[3-(1-Benzyl-1H-pyrazol-4-yl)-phenyl]-5-(1-piperidin-4-yl-1H-pyrazol-4-yl)-pyrimidine hydrochloride], the pIC50 is 6.00 to 7.00.

Consider `Cn1cc(-c2cccc(-c3ncc(-c4cnn(C5CCN(CC(O)C(F)(F)F)CC5)c4)cn3)c2)cn1` (stereo not shown) [Example 31, 1,1,1-Trifluoro-3-[4-(4-{2-[3-(1-methyl-1H-pyrazol-4-yl)-phenyl]-pyrimidin-5-yl}-pyrazol-1-yl)-piperidin-1-yl]-propan-2-ol], for which the pIC50 was 6.00 to 7.00.

Regarding `Cn1cc(-c2cccc(-c3ncc(-c4cnn([C@H]5CCC[C@@H](N6CCOC6=O)C5)c4)cn3)c2)cn1` (relative stereo) [Example 257, 3-[cis-3-(4-{2-[3-(1-Methyl-1H-pyrazol-4-yl)-phenyl]-pyrimidin-5-yl}-pyrazol-1-yl)-cyclohexyl]-oxazolidin-2-one], the pIC50 was more than 7.00.

Consider `C[C@H]1C[C@@H](n2cc(-c3cnc(-c4cccc(-c5cnn(C)c5)c4)nc3)cn2)CCN1` [Example 246, 5-[1-((2S,4S)-2-Methyl-piperidin-4-yl)-1H-pyrazol-4-yl]-2-[3-(1-methyl-1H-pyrazol-4-yl)-phenyl]-pyrimidine], for which the pIC50 was more than 7.00.

For `Cc1cc(-c2cccc(-c3ncc(-c4cnn([C@H]5CCCS(=O)(=O)C5)c4)cn3)c2)cnn1` (single isomer, unassigned) [Example 240], the pIC50 is 6.00 to 7.00.

As to `Cn1cc(-c2cccc(-c3ncc(-c4cnn(C5COC5)c4)cn3)c2)cn1` [Example 141, 2-[3-(1-Methyl-1H-pyrazol-4-yl)-phenyl]-5-(1-oxetan-3-yl-1H-pyrazol-4-yl)-pyrimidine], the pIC50 is 6.00 to 7.00.

Turning to `CC(=O)N1CCC(n2cc(-c3cnc(-c4cccc(-c5cnn(C)c5)c4)nc3)cn2)C(F)(F)C1` (stereo not shown) [Example 284, 1-[3,3-Difluoro-4-(4-{2-[3-(1-methyl-1H-pyrazol-4-yl)-phenyl]-pyrimidin-5-yl}-pyrazol-1-yl)-piperidin-1-yl]-ethanone], the negative-log IC50 (pIC50) is more than 7.00.

In the case of `CN(C)C(=O)[C@H]1C[C@H]2COC[C@@H](C1)[C@@H]2n1cc(-c2cnc(-c3cccc(-c4cnn(C)c4)c3)nc2)cn1` [Example 194, cis-cis-9-(4-{2-[3-(1-Methyl-1H-pyrazol-4-yl)-phenyl]-pyrimidin-5-yl}-pyrazol-1-yl)-3-oxa-bicyclo[3.3.1]nonane-7-carboxylic acid dimethylamide], the pIC50 is 5.30 to 6.00.

Consider `CO[C@H]1CC[C@H](n2cc(-c3cnc(-c4cccc(-c5cnn(C)c5)c4)nc3)cn2)CC1` [Example 253, trans-5-[1-(4-Methoxy-cyclohexyl)-1H-pyrazol-4-yl]-2-[3-(1-methyl-1H-pyrazol-4-yl)-phenyl]-pyrimidine], for which the pIC50 was more than 7.00.

In general, pIC50 refers to the IC50 on a negative log10 scale, so that one unit is a factor of ten.
